In one assay the target is T1, BTK (Homo sapiens, UniProt Q06187).
T1 construct: High control=Cell group with added DMSO and without compound, indicating microplate readings without BTK degradation; endogenous in cells; host or cells: TMD-8
Description: BTK degradation in TMD-8 cells (HTRF assay). The format is cell-based. The note with it: 6 h treatment, IC50 (DC50) of BTK degradation. The essentials: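 TMD-8 cells were exposed for 6 h to 8 compound doses (6-fold serial dilution, 0.2% DMSO). Lysed cells were incubated overnight at room temperature with HTRF antibodies and read at 665/620 nm. DC50 came from four-parameter fitting of % inhibition versus concentration.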

The next assay deals with HEK-293 cells. Description: HEK-293 cytotoxicity detection (CellTiter-Glo). The format is cell-based. The note with it: HEK-293 cells, 72 h incubation, CellTiter-Glo luminescence, IC50 of cell proliferation inhibition, read-out: HEK293. In outline:
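HEK-293 cells exposed 72 h to an 8-point, 4-fold dilution series (top 500× stock 5 mM in DMSO; 0.2% DMSO final). Viability by CellTiter-Glo luminescence after 10 min at room temperature; IC50 from four-parameter Hill fit of percent inhibition.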

The values that follow come from US20240366770A1, “DEGRADATION OF BRUTON'S TYROSINE KINASE (BTK) BY CONJUGATION OF BTK INHIBITORS WITH E3 LIGASE LIGAND AND METHODS OF USE” (BeiGene Switzerland GmbH, priority 2021, published 2024).

Like-named read-outs stand apart in the source and are kept apart here. Some results are limits rather than exact numbers.

Usually DC50 stands for the concentration at which degradation of the target reaches its halfway point. Low readings indicate degradation at low concentration, high ones degradation only at high concentration.

T1 sequence (Q06187 whole entry): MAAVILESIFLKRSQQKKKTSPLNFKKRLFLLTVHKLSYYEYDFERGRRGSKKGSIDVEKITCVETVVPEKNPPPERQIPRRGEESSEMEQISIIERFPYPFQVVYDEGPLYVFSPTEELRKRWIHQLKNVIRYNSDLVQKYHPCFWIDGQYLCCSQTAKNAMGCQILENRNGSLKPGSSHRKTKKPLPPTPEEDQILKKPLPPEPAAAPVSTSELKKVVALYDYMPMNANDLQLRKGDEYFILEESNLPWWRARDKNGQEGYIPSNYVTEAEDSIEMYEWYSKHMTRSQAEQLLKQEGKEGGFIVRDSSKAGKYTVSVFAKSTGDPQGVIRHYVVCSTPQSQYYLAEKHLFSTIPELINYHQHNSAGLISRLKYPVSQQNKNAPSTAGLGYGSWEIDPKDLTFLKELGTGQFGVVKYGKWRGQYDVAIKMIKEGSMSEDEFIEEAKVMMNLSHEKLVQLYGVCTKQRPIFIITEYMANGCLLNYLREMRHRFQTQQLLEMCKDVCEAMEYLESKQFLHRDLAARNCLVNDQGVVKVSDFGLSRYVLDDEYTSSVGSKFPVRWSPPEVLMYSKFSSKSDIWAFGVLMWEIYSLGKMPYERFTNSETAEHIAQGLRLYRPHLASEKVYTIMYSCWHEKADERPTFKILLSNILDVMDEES

On BTK, `Cc1cc(-c2ncnc3[nH]c4cc(N5CCN(CC6CCN(c7ccc(N8CCC(=O)NC8=O)cc7)CC6)CC5)ccc4c23)c(F)cc1[C@@H](C)NC(=O)c1nc(C(C)(C)C)no1` [Example 23, (R)-3-(tert-butyl)-N-(1-(4-(7-(4-((1-(4-(2,4-dioxotetrahydropyrimidin-1(2H)-yl)phenyl)piperidin-4-yl)methyl)piperazin-1-yl)-9H-pyrimido[4,5-b]indol-4-yl)-5-fluoro-2-methylphenyl)ethyl)-1,2,4-oxadiazole-5-carboxamide] had a DC50 of 0.608 nM. For the same compound, in the assay on HEK-293 cells (Homo sapiens), the IC50 was determined as 2.9 µM.
On the same counts, the results for `Cc1c([C@@H](C)NC(=O)c2noc(C(C)(C)C)n2)ccc(-c2ncnc3[nH]c4cc(N5CCN(CC6CCN(c7ccc(N8CCC(=O)NC8=O)cc7)CC6)CC5)ccc4c23)c1F` [Example 27, (R)-5-(tert-butyl)-N-(1-(4-(7-(4-((1-(4-(2,4-dioxotetrahydropyrimidin-1(2H)-yl)phenyl)piperidin-4-yl)methyl)piperazin-1-yl)-9H-pyrimido[4,5-b]indol-4-yl)-3-fluoro-2-methylphenyl)ethyl)-1,2,4-oxadiazole-3-carboxamide] are 0.299 nM and above 10 µM.
The compound `Cc1cc(-c2ncnc3[nH]c4cc(N5CCC6(CC5)CCN(C5CC(c7ccc([C@H]8CCC(=O)NC8=O)cc7)C5)C6)ccc4c23)ccc1[C@@H](C)NC(=O)c1nc(C(C)(C)C)no1` (stereo partly drawn) [Example 102, 3-(tert-butyl)-N—((R)-1-(4-(7-(2-(3-(4-((R)-2,6-dioxopiperidin-3-yl)phenyl)cyclobutyl)-2,8-diazaspiro[4.5]decan-8-yl)-9H-pyrimido[4,5-b]indol-4-yl)-2-methylphenyl)ethyl)-1,2,4-oxadiazole-5-carboxamide] returned a half-maximal degradation concentration (DC50) at BTK of 4.88 nM. For the same compound, the IC50 with HEK-293 cells (Homo sapiens) came out at 1.02 µM.
As for `COc1cc2c(cc1N1CCN(C3CC(c4ccc([C@H]5CCC(=O)NC5=O)cc4)C3)CC1)[nH]c1ncnc(-c3ccc([C@@H](C)NC(=O)c4noc(C(C)(C)C)n4)c(C)c3F)c12` (stereo partly drawn) [Example 60, 5-(tert-butyl)-N—((R)-1-(4-(7-(4-(3-(4-((R)-2,6-dioxopiperidin-3-yl)phenyl)cyclobutyl)piperazin-1-yl)-6-methoxy-9H-pyrimido[4,5-b]indol-4-yl)-3-fluoro-2-methylphenyl)ethyl)-1,2,4-oxadiazole-3-carboxamide], it took 4.97 nM to reach half-maximal degradation on BTK (DC50). The IC50 with HEK-293 cells (Homo sapiens) is above 10 µM.
The corresponding values for `COc1cc2c(cc1N1CCN(Cc3ccc4c(c3)C(C)(C)C(=O)N4C3CCC(=O)NC3=O)CC1)[nH]c1ncnc(-c3ccc([C@@H](C)NC(=O)c4nc(C(C)(C)C)no4)c(C)c3)c12` (stereo partly drawn) [Example 73, 3-(tert-butyl)-N-((1R)-1-(4-(7-(4-((1-(2,6-dioxopiperidin-3-yl)-3,3-dimethyl-2-oxoindolin-5-yl)methyl)piperazin-1-yl)-6-methoxy-9H-pyrimido[4,5-b]indol-4-yl)-2-methylphenyl)ethyl)-1,2,4-oxadiazole-5-carboxamide] are 1.27 nM and above 10 µM.
On to `Cc1c([C@@H](C)NC(=O)c2noc(C(C)(C)C)n2)ccc(-c2ncnc3[nH]c4cc(N5CCN(Cc6ccc7c(c6)N(C6CCC(=O)NC6=O)C(=O)C7(C)C)CC5)ccc4c23)c1F` (stereo partly drawn) [Example 85, 5-(tert-butyl)-N-((1R)-1-(4-(7-(4-((1-(2,6-dioxopiperidin-3-yl)-3,3-dimethyl-2-oxoindolin-6-yl)methyl)piperazin-1-yl)-9H-pyrimido[4,5-b]indol-4-yl)-3-fluoro-2-methylphenyl)ethyl)-1,2,4-oxadiazole-3-carboxamide], for which, on BTK, the 50% degradation concentration (DC50) is above 2000 nM. The IC50 with HEK-293 cells (Homo sapiens) was above 10 µM.
On the same counts, the results for `Cc1cc(-c2ncnc3[nH]c4cc(N5CCN(CC6CCN(c7ccc(N8CCC(=O)NC8=O)cc7)CC6)CC5)ccc4c23)c(F)cc1[C@@H](C)NC(=O)c1nc(C2(C)CC2)no1` [Example 89, (R)—N-(1-(4-(7-(4-((1-(4-(2,4-dioxotetrahydropyrimidin-1(2H)-yl)phenyl)piperidin-4-yl)methyl)piperazin-1-yl)-9H-pyrimido[4,5-b]indol-4-yl)-5-fluoro-2-methylphenyl)ethyl)-3-(1-methylcyclopropyl)-1,2,4-oxadiazole-5-carboxamide] are 0.55 nM and above 10 µM.
On the same counts, the results for `Cc1c([C@@H](C)NC(=O)c2noc(C(C)(C)C)n2)ccc(-c2ncnc3[nH]c4cc(N5CCN(C6CCN(Cc7ccc8c(c7)n(C7CCC(=O)NC7=O)c(=O)n8C)CC6)CC5)ccc4c23)c1F` (stereo partly drawn) [Example 87, 5-(tert-butyl)-N-((1R)-1-(4-(7-(4-(1-((3-(2,6-dioxopiperidin-3-yl)-1-methyl-2-oxo-2,3-dihydro-1H-benzo[d]imidazol-5-yl)methyl)piperidin-4-yl)piperazin-1-yl)-9H-pyrimido[4,5-b]indol-4-yl)-3-fluoro-2-methylphenyl)ethyl)-1,2,4-oxadiazole-3-carboxamide] are above 2000 nM and above 10 µM.
At BTK, `COc1cc2c(cc1N1CCN(CC3CCN(c4ccc(N5CCC(=O)NC5=O)cc4)CC3)CC1)[nH]c1ncnc(-c3ccc([C@@H](C)NC(=O)c4nc(C(C)(C)C)no4)c(C)c3)c12` [Example 46, (R)-3-(tert-butyl)-N-(1-(4-(7-(4-((1-(4-(2,4-dioxotetrahydropyrimidin-1(2H)-yl)phenyl)piperidin-4-yl)methyl)piperazin-1-yl)-6-methoxy-9H-pyrimido[4,5-b]indol-4-yl)-2-methylphenyl)ethyl)-1,2,4-oxadiazole-5-carboxamide] returned a DC50 of 0.366 nM. The IC50 in the assay on HEK-293 cells (Homo sapiens) is above 10 µM.
`Cc1cc(-c2ncnc3[nH]c4cc(N5CCN(CCc6ccc(N7CCC(=O)NC7=O)c(C)c6)CC5)ccc4c23)ccc1[C@@H](C)NC(=O)c1nc(C(C)(C)C)no1` [Example 17, (R)-3-(tert-butyl)-N-(1-(4-(7-(4-(4-(2,4-dioxotetrahydropyrimidin-1(2H)-yl)-3-methylphenethyl)piperazin-1-yl)-9H-pyrimido[4,5-b]indol-4-yl)-2-methylphenyl)ethyl)-1,2,4-oxadiazole-5-carboxamide] came in with a half-maximal degradation concentration (DC50) on BTK of 0.341 nM. In addition, the IC50 in the assay on HEK-293 cells (Homo sapiens) was above 10 µM.
The corresponding values for `Cc1cc2c(cc1N1CCN(CC3CCN(c4ccc(N5CCC(=O)NC5=O)cc4)CC3)CC1)[nH]c1ncnc(-c3cc(CO)c([C@@H](C)NC(=O)c4nc(C(C)(C)C)no4)cc3F)c12` [Example 40, (R)-3-(tert-butyl)-N-(1-(4-(7-(4-((1-(4-(2,4-dioxotetrahydropyrimidin-1(2H)-yl)phenyl)piperidin-4-yl)methyl)piperazin-1-yl)-6-methyl-9H-pyrimido[4,5-b]indol-4-yl)-5-fluoro-2-(hydroxymethyl)phenyl)ethyl)-1,2,4-oxadiazole-5-carboxamide] are 2.12 nM and above 10 µM.
`COc1cc2c(cc1N1CCN(C3CC(c4ccc(N[C@H]5CCC(=O)NC5=O)cc4)C3)CC1)[nH]c1ncnc(-c3cc(C)c([C@@H](C)NC(=O)c4nc(C5(C)CC5)no4)cc3F)c12` (stereo partly drawn) [Example 94, N—((R)-1-(4-(7-(4-((1S,3s)-3-(4-(((R)-2,6-dioxopiperidin-3-yl)amino)phenyl)cyclobutyl)piperazin-1-yl)-6-methoxy-9H-pyrimido[4,5-b]indol-4-yl)-5-fluoro-2-methylphenyl)ethyl)-3-(1-methylcyclopropyl)-1,2,4-oxadiazole-5-carboxamide] showed a DC50 on BTK of 0.768 nM. Also, the IC50 in the assay on HEK-293 cells amounted to 0.42 µM.
`Cc1cc(-c2ncnc3[nH]c4cc(N5CCN([C@H]6C[C@H](c7ccc(NC8CCC(=O)NC8=O)cc7)C6)CC5)ccc4c23)ccc1[C@@H](C)NC(=O)c1nc(C2(C)CC2)no1` (stereo partly drawn) [Example 116, N-((1R)-1-(4-(7-(4-((1r,3r)-3-(4-((2,6-dioxopiperidin-3-yl)amino)phenyl)cyclobutyl)piperazin-1-yl)-9H-pyrimido[4,5-b]indol-4-yl)-2-methylphenyl)ethyl)-3-(1-methylcyclopropyl)-1,2,4-oxadiazole-5-carboxamide] came in with a half-maximal degradation concentration (DC50) at BTK of 0.509 nM. Also, the IC50 with HEK-293 cells (Homo sapiens) is above 10 µM.
On the same counts, the results for `Cc1cc(-c2ncnc3[nH]c4cc(N5CCC6(CCN(CC7CCN(c8ccc(N9CCC(=O)NC9=O)cc8)CC7)C6)CC5)ccc4c23)ccc1[C@@H](C)NC(=O)c1nc(C(C)(C)C)no1` [Example 100, (R)-3-(tert-butyl)-N-(1-(4-(7-(2-((1-(4-(2,4-dioxotetrahydropyrimidin-1(2H)-yl)phenyl)piperidin-4-yl)methyl)-2,8-diazaspiro[4.5]decan-8-yl)-9H-pyrimido[4,5-b]indol-4-yl)-2-methylphenyl)ethyl)-1,2,4-oxadiazole-5-carboxamide] are 1.02 nM and 3.42 µM.
On the same counts, the results for `Cc1c([C@@H](C)NC(=O)c2noc(C(C)(C)C)n2)ccc(-c2ncnc3[nH]c4cc(N5CCN(Cc6ccc7c(c6)C(C)(C)C(=O)N7C6CCC(=O)NC6=O)CC5)ccc4c23)c1F` (stereo partly drawn) [Example 86, 5-(tert-butyl)-N-((1R)-1-(4-(7-(4-((1-(2,6-dioxopiperidin-3-yl)-3,3-dimethyl-2-oxoindolin-5-yl)methyl)piperazin-1-yl)-9H-pyrimido[4,5-b]indol-4-yl)-3-fluoro-2-methylphenyl)ethyl)-1,2,4-oxadiazole-3-carboxamide] are above 2000 nM and above 10 µM.
